Measured values from patent publication US10143719B2, “Inhibitors of valosin-containing protein and methods of use” (CASE WESTERN RESERVE UNIVERSITY, priority 2015, dated 2018).
Residues, ends and D or L forms follow the SMILES beside them. *: point of attachment. Cbz = O=C(OCc1ccccc1)*

Tested on: Htt or mtHtt
Experiment: Htt/mtHtt protein levels after proteasome or VCP inhibitor
Type: cell-based, mouse
Conditions: HdhQ or HdhQ111 cells
Description: VCP plays a central role in protein degradation by binding to its substrates.

| SMILES | Htt or mtHtt protein levels |
| --- | --- |
| CC1(C)C(N(O)C(=O)Nc2ccc(Cl)cc2)N(c2ccc(Cl)cc2)C(=O)N1CC(=O)N/N=C/C=C/c1ccc([N+](=O)[O-])o1 (centres unmarked) [Eeyarestatin I] | did not affect Htt or mtHtt protein levels |
| CC(C)C[C@@H](C=O)NC(=O)[C@H](CC(C)C)NC(=O)[C@H](CC(C)C)NC(=O)OCc1ccccc1 [MG132] (Cbz-Leu-Leu-Leu-aldehyde) | did not affect Htt or mtHtt protein levels |
